≈ marks a conversion by molar mass, not a printed value. Calls of active or inactive are those of the source. No cut-off for these calls is given here.
Key:
Endothelin-1 receptor = molecular target: T1, Endothelin-1 receptor (Sus scrofa, UniProt Q29010); test: Displacement of [125]ET1 from ETA receptor in pig thoracic aorta
T1 sequence (Q29010 whole entry): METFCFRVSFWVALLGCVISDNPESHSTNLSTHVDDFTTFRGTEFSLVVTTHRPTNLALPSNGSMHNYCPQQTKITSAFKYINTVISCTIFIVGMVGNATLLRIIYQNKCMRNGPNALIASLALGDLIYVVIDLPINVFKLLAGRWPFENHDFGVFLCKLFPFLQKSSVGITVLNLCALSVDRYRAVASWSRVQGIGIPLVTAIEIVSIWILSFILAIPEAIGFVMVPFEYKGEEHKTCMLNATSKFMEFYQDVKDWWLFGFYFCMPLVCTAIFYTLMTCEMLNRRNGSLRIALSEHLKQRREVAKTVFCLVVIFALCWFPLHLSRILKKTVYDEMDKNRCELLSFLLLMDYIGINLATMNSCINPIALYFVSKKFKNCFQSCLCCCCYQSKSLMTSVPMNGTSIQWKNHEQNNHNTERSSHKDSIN

[1] = molecular target: T2, Endothelin receptor type B (Rattus norvegicus) (UniProt P21451); test: Displacement of [125]ET3 from ETB receptor in Sprague-Dawley rat cerebellum at 70 uM
T2 sequence (whole entry): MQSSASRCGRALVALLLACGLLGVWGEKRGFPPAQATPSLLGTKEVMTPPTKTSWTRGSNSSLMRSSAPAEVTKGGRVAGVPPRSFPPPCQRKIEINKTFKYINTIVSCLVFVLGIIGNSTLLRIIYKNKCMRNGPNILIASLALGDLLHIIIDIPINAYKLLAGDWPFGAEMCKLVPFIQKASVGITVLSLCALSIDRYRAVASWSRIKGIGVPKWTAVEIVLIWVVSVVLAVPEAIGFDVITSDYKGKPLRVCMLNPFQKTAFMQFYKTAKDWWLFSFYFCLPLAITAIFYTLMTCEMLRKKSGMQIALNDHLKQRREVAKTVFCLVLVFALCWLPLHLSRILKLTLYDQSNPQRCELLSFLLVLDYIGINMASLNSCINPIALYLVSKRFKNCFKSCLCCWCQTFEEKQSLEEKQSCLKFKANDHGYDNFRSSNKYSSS

Bacillus subtilis [2] = test: Antibacterial activity against Bacillus subtilis ATCC 6633 at 50 ug/mL after 18 to 24 hrs by twofold dilution test; assay type: functional, organism-based
[3] = molecular target: T3, Endothelin-1 receptor (Sus scrofa) (UniProt Q29010); test: Displacement of [125]ET1 from ETA receptor in pig thoracic aorta at 70 uM; assay type: tissue-based
T3 sequence (whole entry): T1 sequence (Q29010 whole entry)

Bacillus subtilis [4] = test: Antibacterial activity against Bacillus subtilis ATCC 6633 after 18 to 24 hrs by twofold dilution test; assay type: functional

SMILES | IC50 (Endothelin-1 receptor) | inhibition [1] | Activity (Bacillus subtilis [2]) | inhibition [3] | MIC (Bacillus subtilis [4])
O=C1NCCc2ccc(c(Br)c2)Oc2cc(ccc2O)CCNC(=O)/C(=N/O)Cc2cc(Br)c(OS(=O)(=O)O)c(c2)Oc2c(Br)cc(cc2Br)C/C1=N\O | 39 µM | 27% | inactive | – | –
O=C1NCCc2ccc(c(Br)c2)Oc2cc(ccc2O)CCNC(=O)/C(=N/O)Cc2cc(Br)c(O)c(c2)Oc2c(Br)cc(cc2Br)C/C1=N\O [BASTADIN 13] | – | 30% | – | 32% | 6 µg/mL (≈ 6.38 µM)

From ChEMBL document CHEMBL1147376, “Isolation and structure elucidation of 34-sulfatobastadin 13, an inhibitor of the endothelin A receptor, from a marine sponge of the genus Ianthella” (J Nat Prod, 1993)
